Structures are written as SMILES. Like-named read-outs stand apart in the source and are kept apart here.

Assay [1] has as its system cervical canal. Kind of assay: Cervical ripening action (maximum tension and slope in extension of the extracted cervical canal after intravaginal administration). In kind it is in vivo, Hartley mature guinea pigs. As to conditions: 10µg, intravaginal administration three times, cervical canal extracted 4 hours after final administration; maximum tension and slope compared with the base administration group, Dunnett's method. As for the experimental part:
The cervical ripening actions of compounds of formula (I) were examined by using Hartley mature guinea pigs (nine-week-old, clean animals).
In order to compare with these compounds, the action of BPS was also tested. Experiment was carried out for 4 to 14 samples per group.
In the test, 100 µl of a test medicine or a base thereof was administered to the vagina at 9 o'clock and 17 o'clock, and 9 o'clock on the next day, and a guinea pig was dissected to extract the cervical canal 4 hours after the final administration. Then, the cervical canal was extended at a rate of 2 mm/min to measure tension generated in the tissue with time. As an index for cervical ripening, the maximum tension generated up to breakage of the tissue, and the slope obtained by dividing the maximum tension by the distance of extension were examined. It is thought that decreases in these values indicate ripening of the cervical canal. A test medicine was dissolved in phosphate buffered saline, and then mixed with 3% hydroxypropyl cellulose.
Figs. 1 and 2 show changes in the maximum tension and the slope, respectively, caused by the test medicines. (*: P < 0.05, **: P < 0.01, Dunnett's method, comparison with the base administration group).

For assay [2], the system named is cervical canal. Conditions: mice; high dosage of 100 µg to 200 µg (about 2 to 4 mg per kg of weight) required; cited from earlier work.

As to `CC#CCC(C)[C@H](O)/C=C/[C@@H]1[C@H]2c3cccc(CCCC(=O)O)c3O[C@H]2C[C@H]1O` (mixture of isomers) [BPS, beraprost sodium, reference compound], the cervical ripening action entry is recorded as “no cervical ripening action” in assay [1] and “exhibits a cervical ripening action” in assay [2].

As for `O=C(O)CCc1cccc2c1O[C@H]1C[C@@H](O)[C@H](/C=C/[C@@H](O)CC3CCCCC3)[C@@H]21` [Compound-3], the cervical ripening action result in assay [1] was “significant cervical ripening action”. Consider `O=C(O)COc1cccc2c1OC1CC(O)C(C=CC(O)C3CCCC3)C21` (centres unmarked) [Compound-1], for which, in assay [1], the cervical ripening action entry is given as “significant cervical ripening action”. Still for that read-out and setting: with `O=C(O)COc1cccc2c1OC1CC(O)C(C=CC(O)C3CCCCC3)C21` (centres unmarked) [Compound-2] the entry was “significant cervical ripening action”.

The values are drawn from patent EP0970697A1, “CERVICAL MATURING AGENT” (TORAY INDUSTRIES, INC., priority 1997, dated 1999).
